In BindingDB's records for doi:10.7270/Q2XG9T96 (n/a, 1997):

Molecular target: Phosphatidylinositol 4-kinase type 2-alpha (Homo sapiens, UniProt Q9BTU6)
Assay: Inhibition of Phosphatidylinositol 4-kinase of human epidermoid carcinoma A431 cells

Chain of Phosphatidylinositol 4-kinase type 2-alpha (Q9BTU6 whole entry): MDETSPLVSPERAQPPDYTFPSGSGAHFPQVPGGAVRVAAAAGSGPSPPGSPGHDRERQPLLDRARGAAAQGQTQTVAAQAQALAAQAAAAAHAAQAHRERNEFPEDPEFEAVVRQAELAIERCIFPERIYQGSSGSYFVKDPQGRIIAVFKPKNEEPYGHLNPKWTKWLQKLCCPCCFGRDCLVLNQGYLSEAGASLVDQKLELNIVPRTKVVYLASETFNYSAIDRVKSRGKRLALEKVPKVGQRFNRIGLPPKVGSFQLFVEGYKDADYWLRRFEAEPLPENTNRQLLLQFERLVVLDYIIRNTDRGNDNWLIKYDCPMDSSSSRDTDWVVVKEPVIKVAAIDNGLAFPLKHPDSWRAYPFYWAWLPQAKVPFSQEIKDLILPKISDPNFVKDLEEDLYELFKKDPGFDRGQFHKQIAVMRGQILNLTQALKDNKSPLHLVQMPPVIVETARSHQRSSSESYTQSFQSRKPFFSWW

- IC50: 113 nM
SMILES: N=C(N)CCNC(=O)c1c[nH]c2nc(N)nc(O)c12 [ECHIGUANINE A]
